Reference: US6927214B1 (Novo Nordisk A/S, priority 1999, dated 2005)
Read-outs that look alike come from different tables or passages of the source.

Assays:
[1] = target: T1, human glucagon receptor (Homo sapiens, UniProt P47871); assay: Stimulation of cAMP formation in a cell line expressing the cloned human glucagon receptor; format: biochemical; conditions: concentrations tested up to 100 μM
T1 construct: expressed in transfected cells

[2] = target: T2, human GLP-1 receptor (Homo sapiens, UniProt P43220); set-up: Emax: dose or concentration left out as unconfirmed
[3] = target: T2, human GLP-1 receptor; assay: Saturation experiments with labelled GLP-1 tracer on plasma membranes, with or without example 2; format: binding; set-up: expressed in transfected cells; host or cells: BHK (baby hamster kidney) cells; plasma membranes prepared from them; conditions: 10 μM compound, saturation experiment
[4] = target: T2, human GLP-1 receptor; assay: biochemical

T2 sequence (P43220 24-463): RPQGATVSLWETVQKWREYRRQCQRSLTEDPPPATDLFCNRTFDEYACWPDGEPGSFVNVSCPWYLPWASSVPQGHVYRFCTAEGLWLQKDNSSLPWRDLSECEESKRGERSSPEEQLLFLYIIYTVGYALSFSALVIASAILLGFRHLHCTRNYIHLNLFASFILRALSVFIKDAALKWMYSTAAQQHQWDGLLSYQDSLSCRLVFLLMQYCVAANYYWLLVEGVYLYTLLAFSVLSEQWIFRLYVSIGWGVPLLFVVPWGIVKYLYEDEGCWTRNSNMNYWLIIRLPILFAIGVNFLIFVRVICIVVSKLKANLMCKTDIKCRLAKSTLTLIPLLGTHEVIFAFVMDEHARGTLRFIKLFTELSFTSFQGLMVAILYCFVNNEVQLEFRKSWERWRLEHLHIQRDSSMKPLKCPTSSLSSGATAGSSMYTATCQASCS
T1 sequence (P47871 26-477): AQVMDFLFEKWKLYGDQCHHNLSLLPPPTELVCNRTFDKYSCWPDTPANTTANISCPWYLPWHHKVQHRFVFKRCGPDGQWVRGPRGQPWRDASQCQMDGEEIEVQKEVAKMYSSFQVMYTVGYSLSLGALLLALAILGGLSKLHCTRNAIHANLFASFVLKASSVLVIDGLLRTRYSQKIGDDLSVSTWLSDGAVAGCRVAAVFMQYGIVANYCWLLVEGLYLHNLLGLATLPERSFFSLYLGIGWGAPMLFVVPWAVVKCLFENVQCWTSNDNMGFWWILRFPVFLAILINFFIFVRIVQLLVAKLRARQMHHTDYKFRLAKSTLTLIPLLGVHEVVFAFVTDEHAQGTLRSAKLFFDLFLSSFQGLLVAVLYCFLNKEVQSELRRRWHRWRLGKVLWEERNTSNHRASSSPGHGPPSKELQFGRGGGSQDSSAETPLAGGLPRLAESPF

Row | SMILES | EC50 [2] | Emax [2] | EC50 [4] | Emax [4] | further results
1 | Cc1nnc(Sc2nc3cc(Cl)c(Cl)cc3nc2C(F)(F)F)s1 [Example 2, 6,7-Dichloro-2-trifluoromethyl-3-(5-methyl-1,3,4-thiadiazol-2-ylsulfanyl)quinoxaline] | 310 nM | 100% | – | – | agonist activity (cAMP formation) [1]: no measurable activity; effect on the affinity of the receptor for GLP-1 [3]: changed the affinity of the receptor for GLP-1
2 | Cc1nnc([S+]([O-])c2nc3cc(Cl)c(Cl)cc3nc2C(C)C)s1 (stereo not shown) [Example 6, 6,7-Dichloro-2-isopropyl-3-(5-methyl-1,3,4-thiadiazol-2-ylsulfinyl)quinoxaline] | 170 nM | 94% | – | – | –
3 | Cc1nnc(S(=O)(=O)c2nc3cc(Cl)c(Cl)cc3nc2C(C)C)s1 [Example 7, 6,7-Dichloro-2-isopropyl-3-(5-methyl-1,3,4-thiadiazol-2-ylsulfonyl)quinoxaline] | 78 nM | 120% | – | – | –
4 | CS(=O)(=O)c1nc2cc(Cl)c(Cl)cc2nc1C(F)(F)F [Example 19, 6,7-Dichloro-2-methanesulfonyl-3-trifluoromethylquinoxaline] | 160 nM | 120% | – | – | –
5 | CC(C)S(=O)(=O)c1nc2cc(Cl)c(Cl)cc2nc1C(F)(F)F [Example 20, 6,7-Dichloro-2-trifluoromethyl-3-isopropylsulfonylquinoxaline] | 68 nM | 140% | – | – | –
6 | O=Cc1cc2cc(Cl)ccc2nc1Cl [Example 25, 2,6-Dichloroquinoline-3-carbaldehyde] | – | 15% | – | – | –
7 | CSc1nc2ccc(Cl)cc2cc1C=O [Example 29, 6-Chloro-2-methylsulfanylquinoline-3-carbaldehyde] | – | 13% | – | – | –
8 | Cc1nc2cc(Cl)ccc2nc1Cl [Example 46, 2,6-Dichloro-3-methylquinoxaline] | > 33000 nM | 0% | – | – | –
9 | COc1nc2ccc(Cl)cc2nc1Cl [Example 47, 2,7-Dichloro-3-methoxyquinoxaline] | 10000 nM | 50% | – | – | –
10 | Cc1nc2cc(Cl)c(Cl)cc2nc1S(C)(=O)=O [Example 56, 6,7-Dichloro-3-methyl-2-(methylsulfonyl)quinoxaline] | 78 nM | 130% | – | – | –
11 | CC(C)c1nc2cc(Cl)c(Cl)cc2nc1S(=O)(=O)c1cncn1C [Example 65, 6,7-Dichloro-2-isopropyl-3-(1-methyl-1H-imidazol-5-ylsulfonyl)quinoxaline] | – | – | 650 nM | 53% | –
12 | CCCc1nc2cc(Cl)c(Cl)cc2nc1S(C)(=O)=O [Example 92, 6,7-Dichloro-2-(methylsulfonyl)-3-propylquinoxaline] | – | – | 770 nM | 53% | –
13 | CC(C)(C)Nc1nc2cc(Cl)c(Cl)cc2nc1S(C)(=O)=O [Example 103, N-[6,7-Dichloro-3-(methylsulfonyl)-2-quinoxalinyl]N-tert-butylamine] | – | – | 50 nM | 80% | –
14 | O=[N+]([O-])c1cc2nc(-c3ccccc3)c(C(F)(F)F)nc2cc1[N+](=O)[O-] [Example 145, 6,7-Dinitro-2-phenyl-3-trifluoromethylquinoxaline] | – | – | – | – | Emax at 0.33 µM [4]: 36%
15 | O=[N+]([O-])c1cc2ncc(-c3ccc(C(F)(F)F)cc3)nc2cc1[N+](=O)[O-] [Example 147, 6,7-Dinitro-2-(4-trifluoromethylphenyl)quinoxaline] | – | – | – | – | Emax at 1 µM [4]: 31%
16 | FC(F)(F)c1nc2cc(Cl)c(Cl)cc2nc1Sc1nccs1 [Example 156, 6,7-Dichloro-2-(thiazol-2-ylsulfanyl)-3-trifluoromethyl-quinoxaline] | – | – | – | – | Emax at 0.01 µM [4]: 42%
17 | O=C(c1ccccc1)c1ccc2nc(Br)c(C(F)(F)F)nc2c1 [Example 157, (2-Bromo-3-trifluoromethyl-quinoxalin-6-yl)phenyl Methanone] | – | – | – | – | Emax at 3.3 µM [4]: 15%
18 | Cc1nnc(Sc2nc3ccc(C(=O)c4ccccc4)cc3nc2C(F)(F)F)s1 [Example 158, [2-(5-Methyl-[1,3,4]thiadiazol-2-ylsulfanyl)-3-trifluorophenylquinoxalin-6-yl]phenyl Methanone] | – | – | – | – | melting point: 160 to 162 °C
19 | CC(C)CCS(=O)(=O)c1nc2cc(Cl)ccc2nc1C(F)(F)F [Example 169, 6-Chloro-3-(3-methylbutylsulfonyl)-2-trifluoromethyl-quinoxaline] | – | – | – | – | Emax at 1 µM [4]: 19%
20 | CC(C)CCS(=O)(=O)c1nc2ccc(Cl)cc2nc1C(F)(F)F [Example 170, 6-Chloro-2-(3-methylbutyl-1-sulfonyl)-3-trifluoromethyl-quinoxaline] | – | – | – | – | Emax at 1 µM [4]: 33%

Further lines, with some results ahead:

Row | EC50 [2] | Emax [2] | EC50 [4] | Emax [4] | SMILES | further results
21 | – | – | 680 nM | 54% | CS(=O)(=O)c1nc2cc(Cl)c(Cl)cc2nc1NC1CCCc2ccccc21 (stereo not shown) [Example 108, N-[6,7-Dichloro-3-(methylsulfonyl)-2-quinoxalinyl]-N-(1,2,3,4-tetrahydro-naphthalene-1-yl)amine] | –
22 | – | – | 290 nM | 76% | CCC(C)(C)Nc1nc2cc(Cl)c(Cl)cc2nc1S(C)(=O)=O [Example 135, (6,7-Dichloro-3-(methylsulfonyl)═quinoxalin-2-yl)tert-pentylamine] | –
23 | – | – | 820 nM | 64% | CC(C)Nc1nc2cc(Cl)c(Cl)cc2nc1S(=O)(=O)Cc1ccc(OC(F)F)cc1 [Example 136, (6,7-Dichloro-3-{[4-(difluoromethoxy)benzyl]sulfonyl}quinoxalin-2-yl)isopropylamine] | –
24 | – | – | 660 nM | 46% | CC(C)Sc1nc2cc(Cl)c(Cl)cc2nc1S(C)(=O)=O [Example 137, 6,7-Dichloro-2-(isopropylsulfanyl)-3-(methylsulfonyl)quinoxaline] | –
25 | – | – | 540 nM | 72% | Cn1ccnc1S(=O)(=O)c1nc2cc(Cl)c(Cl)cc2nc1NC(C)(C)C [Example 138, (6,7-Dichloro-3-[(1-methyl-1H-imidazol-2-yl)sulfonyl]quinoxalin-2-yl)-tert-butylamine] | –
